Numbered stars: 1 amine (or outer) side, 2 acyl side, 3 side chain; on linkers, the order of the positions; unused ones are H or OH. Bridge positions count the residues as written; N and C are the ends. Square brackets hold non-standard residues; d marks the D form. Side chains are listed from the residue outwards. Peptide text beside a SMILES is read from it. I, II: the chains in the order shown. * marks the point of attachment. PEG24 = NCCOCCOCCOCCOCCOCCOCCOCCOCCOCCOCCOCCOCCOCCOCCOCCOCCOCCOCCOCCOCCOCCOCCOCCOCCC(=O)O; Ala(piperidin-4-yl) = O=C([C@H](CC1CCN([*:3])CC1)N[*:1])[*:2]; DOTA = O=C(O)CN1CCN(CC(=O)O)CCN(CC(=O)*)CCN(CC(=O)O)CC1; γGlu = O=C(O)[C@H](CCC(=O)[*:2])N[*:1]; 2Nal = N[C@@H](Cc1ccc2ccccc2c1)C(=O)O; X8 = CC1(C)CN([*:1])[C@@H]1C(=O)[*:2]; Palmitoyl = CCCCCCCCCCCCCCCC(=O)*; Chg = N[C@H](C(=O)O)C1CCCCC1

The target of this assay is T1, human DLL3 (Homo sapiens, UniProt Q9NYJ7).
T1 sequence (Q9NYJ7 27-618): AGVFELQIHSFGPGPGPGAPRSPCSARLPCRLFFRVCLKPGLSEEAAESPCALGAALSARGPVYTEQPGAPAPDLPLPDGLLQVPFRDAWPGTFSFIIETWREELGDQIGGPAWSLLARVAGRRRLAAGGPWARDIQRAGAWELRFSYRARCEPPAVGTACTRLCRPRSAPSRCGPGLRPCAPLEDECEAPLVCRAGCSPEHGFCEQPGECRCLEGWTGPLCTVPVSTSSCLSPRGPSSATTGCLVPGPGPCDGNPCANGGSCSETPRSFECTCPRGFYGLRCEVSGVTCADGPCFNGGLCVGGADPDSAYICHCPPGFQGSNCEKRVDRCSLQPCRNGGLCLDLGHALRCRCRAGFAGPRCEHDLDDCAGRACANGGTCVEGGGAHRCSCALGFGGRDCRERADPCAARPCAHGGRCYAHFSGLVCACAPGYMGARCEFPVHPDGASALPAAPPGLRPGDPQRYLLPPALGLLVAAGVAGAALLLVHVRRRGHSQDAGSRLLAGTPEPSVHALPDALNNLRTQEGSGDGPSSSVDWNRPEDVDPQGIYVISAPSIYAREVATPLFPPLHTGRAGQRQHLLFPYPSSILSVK
The assay is described as follows: Affinity determination by Surface Plasmon Resonance (SPR). It is filed as binding. The settings on record: 25° C., biotinylated human DLL3 immobilized on streptavidin sensor chip, 1:1 binding model; read-out: SPR KD. In outline: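 Kinetic and affinity constants were derived by fitting sensorgrams to a 1:1 binding model. Graded compound concentrations flowed at 100 μL/minute in 20 mM phosphate running buffer with 2% DMSO over streptavidin-immobilized biotinylated human DLL3, reference-subtracted.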
On to `CC[C@H](C)[C@H](NC(=O)[C@@H](NC(=O)[C@H](Cc1c[nH]c2ccccc12)NC(C)=O)[C@@H](C)O)C(=O)N[C@H]1CSSC[C@@H](C(=O)N[C@@H](Cc2c[nH]c3ccccc23)C(=O)N2CCC[C@H]2C(=O)NCC(=O)NCC(=O)N[C@@H](CO)C(=O)NCC(=O)NCC(=O)N[C@@H](CO)C(=O)N[C@H](CCCCNC(=O)CN2CCN(CC(=O)O)CCN(CC(=O)O)CCN(CC(=O)O)CC2)C(N)=O)NC(=O)[C@H](CC(=O)O)NC(=O)[C@H](Cc2cnc[nH]2)NC(=O)[C@H](Cc2ccc3ccccc3c2)NC(=O)[C@H](CC(N)=O)NC(=O)[C@H](CC(N)=O)NC1=O` [compound 231, Ac-W-T-I-C(3)-N-N-(2Nal)-H-D-C(3)-W-P-G-G-S-G-G-S-[D-Lys(DOTA)]-NH2] (Ac-WTICNN[2Nal]HDCWPGGSGGS[dK](DOTA)-NH2; disulfide 4-10), for which the Kd is less than 1 nM.

Take `CCCCCCCCCCCCCCCC(=O)N[C@@H](CCC(=O)NCCOCCOCCOCCOCCOCCOCCOCCOCCOCCOCCOCCOCCOCCOCCOCCOCCOCCOCCOCCOCCOCCOCCOCCOCCC(=O)NCCCC[C@@H]1NC(=O)[C@H](Cc2ccc3ccccc3c2)NC(=O)[C@H](CC(N)=O)NC(=O)[C@H](CC2CCNCC2)NC(=O)[C@@H](NC(=O)[C@@H](NC(=O)[C@@H](NC(=O)[C@H](Cc2c[nH]c3ccccc23)NC(C)=O)[C@@H](C)O)C2CCCCC2)CSSC[C@@H](C(=O)N[C@@H](Cc2c[nH]c3ccccc23)C(=O)N2CCC[C@H]2C(=O)N[C@H](CCCCNC(=O)CN2CCN(CC(=O)O)CCN(CC(=O)O)CCN(CC(=O)O)CC2)C(N)=O)NC(=O)[C@H](CC(=O)O)NC1=O)C(=O)O` [compound 426, Ac-WT-(Chg)-C(3)-[3-(4-piperidinyl)-Ala]-N-(2Nal)-Lys(PEG24-[gE(C16)]-OH)-D-C(3)-W-P-[D-Lys(DOTA)]-NH2] (Ac-WT[Chg]C[Ala(piperidin-4-yl)]N[2Nal]K([PEG24-γGlu-Palmitoyl])DCWP[dK](DOTA)-NH2; disulfide 4-10): the Kd fell in the range of 1 to 10 nM.

“Ac-W-T-I-C(3)-N-N-(2Nal)-(4Pya)-D-C(3)-W-P-[D-Lys(DOTA)]-NH2 [compound 367]”: the Kd is less than 1 nM.

As to `CC[C@H](C)[C@H](NC(=O)[C@@H](NC(=O)[C@H](Cc1c[nH]c2ccccc12)NC(C)=O)[C@@H](C)O)C(=O)N[C@H]1CSSC[C@@H](C(=O)N[C@@H](Cc2c[nH]c3ccccc23)C(=O)N2CC(C)(C)[C@H]2C(=O)N[C@H](CCCCNC(=O)CN2CCN(CC(=O)O)CCN(CC(=O)O)CCN(CC(=O)O)CC2)C(N)=O)NC(=O)[C@H](CC(=O)O)NC(=O)[C@H](Cc2c[nH]cn2)NC(=O)[C@H](Cc2ccc3ccccc3c2)NC(=O)[C@H](CC(N)=O)NC(=O)[C@H](CC(N)=O)NC1=O` [compound 362, Ac-W-T-I-C(3)-N-N-(2Nal)-H-D-C(3)-W-3Me2-Aze-[D-Lys(DOTA)]-NH2] (Ac-WTICNN[2Nal]HDCW[X8][dK](DOTA)-NH2; disulfide 4-10), the Kd is less than 1 nM.

As to `CC[C@H](C)[C@H](NC(=O)[C@@H](NC(=O)[C@H](Cc1c[nH]c2ccccc12)NC(C)=O)[C@@H](C)O)C(=O)N[C@H]1CSSC[C@@H](C(=O)N[C@@H](Cc2c[nH]c3ccccc23)C(=O)N2CCC[C@H]2C(=O)N[C@H](CCCCNC(=O)CNC(=O)CNC(=O)[C@H](CO)NC(=O)CNC(=O)CNC(=O)[C@H](CO)NC(=O)CN2CCN(CC(=O)O)CCN(CC(=O)O)CCN(CC(=O)O)CC2)C(N)=O)NC(=O)[C@H](CC(=O)O)NC(=O)[C@H](Cc2c[nH]cn2)NC(=O)[C@H](Cc2ccc3ccccc3c2)NC(=O)[C@H](CC(N)=O)NC(=O)[C@H](CC(N)=O)NC1=O` [compound 365, Ac-W-T-I-C(3)-N-N-(2Nal)-H-D-C(3)-W-P-[D-Lys(G-G-S-G-G-S-DOTA)]-NH2] (I: Ac-WTICNN[2Nal]HDCWP[dK]-NH2 / II: {DOTA}-SGGSGG; disulfide I:4-I:10; amide I:13-II:C), the Kd was less than 1 nM.

A word on the Kd: it is the concentration at which binding is half-saturated.

Source of the values: patent US20250011368A1, “DLL3 TARGETING PEPTIDES AND CONSTRUCTS THEREOF” (MARIANA ONCOLOGY INC., priority 2023, published 2025).
